According to patent publication US20100204149A1, “USE OF OCTREOTIDE AS A THERAPEUTIC AGENT” (priority 2007, published 2010):

Columns and labels:
Human A549 cells [1] = assay: Propidium iodide cell cycle assay; type: cell-based; conditions: peptide 10 micrograms per ml, 24 hours
Text: Human A549 cells (carcinomic human alveolar basal epithelial cells) were utilized in the experiments employing the Propidium iodide cell cycle assay. The eukaryotic cell cycle is a series of events that take place in a cell leading to its replication. The regulation of the cell cycle involves steps crucial to the cell, including detecting and repairing genetic damage, and provision of various checks to prevent uncontrolled cell division. The molecular events that control the cell cycle are ordered and directional; that is, each process occurs in a sequential fashion. The cell cycle consists of four distinct phases: G1 phase, S phase, G2 phase (collectively known as interphase) and M phase. M phase is itself composed of two tightly coupled processes: mitosis, in which the cell's chromosomes are divided between the two daughter cells, and cytokinesis, in which the cell's cytoplasm divides forming distinct cells. Activation of each phase is dependent on the proper progression and completion of the previous one. Cells that have temporarily or reversibly stopped dividing are said to have entered a state of quiescence called Go phase. The relatively brief M phase consists of nuclear division and cytoplasmic division. The first phase within interphase, from the end of the previous M phase till the beginning of DNA synthesis is called G1 (G indicating gap or growth). During this phase the biosynthetic activities of the cell resume at a high rate. This phase is marked by synthesis of various enzymes that are required in S phase, mainly those needed for DNA replication. The ensuing S phase starts when DNA synthesis commences; when it is complete, all of the chromosomes have been replicated. The cell then enters the G2 phase, which lasts until the cell enters mitosis. Significant protein synthesis occurs during this phase, mainly involving the production of microtubules, which are required during the process of mitosis. […]
Propidium iodide is an intercalating agent and a fluorescent molecule that can be used to stain DNA. […] After incubation for 40 min at 37° C., cells were analyzed in the FACS.

[2] = system: hepatitis B virus (HBV) ayw strain; assay: HBV replication assay, secreted HBV DNA by TaqMan PCR; type: cell-based; conditions: HepG2-2.2.15; peptide 10 micrograms per ml; six days; HBV DNA in supernatant
HUVEC = assay: Endothelial tube formation assay; type: cell-based, human; conditions: peptide 10 micrograms per ml, 20 hours
Description: The endothelial tube formation assay is based on the ability of endothelial cells to form three-dimensional capillary-like tubular structures when cultured on a gel of basement membrane extract. The endothelial tube formation assay represents a powerful model for studying inhibition and induction of angiogenesis. Pre-labeled HUVEC with Calcein AM were seeded in a 96-well culture plate coated with extracellular metrix (Chemicon international Cat. ECM625) and treated with test peptide—10 micrograms per ml—in full growth medium. […] control was vehicle only. The endothelial cells were allowed to form tubes for 20 hours and were then examined under an inverted fluorescent microscope. Duplicate wells for each treatment were photographed and quantitatively analyzed for an average tubule length using image analysis software ImageProPlus. Raw data were expressed as average tubule lengths in pixels ±standard deviation. Statistic p values were computed using the Student's t-test.

MRSA = assay: Methicillin Resistant Staphylococcus Aureus (MRSA) assay; type: cell-based; conditions: peptide 10 micrograms per ml, read visually
Description: (§1) The antibacterial assay was conducted using clear, U-bottom 96-well microtiter plates. Cation-adjusted Mueller-Hinton Broth (MHB) was used for testing MRSA. The peptide of the invention (0.1 ml of each—10 micrograms per ml—) was dispensed into wells in duplicate. Then the wells were inoculated with 5×10^5 CFU/mL MRSA in 0.1 ml volume. For control purposes, each plate included 4 wells containing media without bacterial inoculum and 4 wells containing medium with inoculum but without peptide. The plates were incubated for 12 h at 37° C., and read visually 18-24 hours post-incubation. Growth control of MRSA was examined first to determine adequacy of media preparations and growth conditions. Acceptable growth is defined as ≧2 mm wide button of cells at the bottom of each sample well, or obvious turbidity in the culture supernatant. Test wells were examined and scored as positive/negative for activity. A positive score for activity is based on complete inhibition of macroscopic growth of the test MRSA.

[3] = system: Human Peripheral Blood Mononuclear Cells (PBMC); conditions: B cell proliferation; peptide 10 micrograms per ml; 3 days
Description: Human Peripheral Blood Mononuclear Cells (PBMC) were obtained from normal human donors. The B cell proliferation was induced by stimulation of the cells with the B cell mitogen Staphylococcus aureus Cowans I (SAC) plus Interleukin-2, either in the absence (positive proliferation control), or in the presence of test peptide—10 micrograms per ml—to examine their effects on the B cell response. 10^5/well PBMC were plated in 96-well microtiter plates and assayed in duplicate with the peptide. Cell cultures were incubated at 37° C. for 3 days in a 5% CO2 incubator and were thereafter pulsed with 1 microCi/well ^3H-thymidine for additional 12 hours of culture. At the end of incubation time, the plates were harvested and the cells counted by liquid scintillation for the incorporation of ^3H-thymidine as a measure of B cell proliferation.

Pseudomonas aeruginosa = Pseudomonas aeruginosa assay; type: cell-based; conditions: peptide 10 micrograms per ml, read visually
Description: as §1, with “Pseudomonas aeruginosa.” for “MRSA.”, “Pseudomonas aeruginosa” for “MRSA”

Human A549 cells [4] = assay: Apoptosis prevention assay (C2 ceramide, Annexin-5); type: cell-based; conditions: pretreated 30 min with peptide 10 micrograms per ml
Text: Human A549 cells (carcinomic human alveolar basal epithelial cells) were utilized in the experiments employing the Annexin-5 apoptosis assay. Annexin-5 is a member of a highly conserved protein family that binds acidic phospholipids in a calcium-dependent manner. […] Phosphatidylserine is translocated from the inner side of the plasma membrane to the outer layer when cells undergo death by apoptosis or cell necrosis and serves as a signal by which cell destined for death are recognized by phagocytes. A549 cells were pretreated for 30 min with test peptide -10 micrograms per ml—followed by the exposure to C2 ceramide. Ceramide mediates cell apoptosis through the activation of the mitogen activating protein kinase (MAPK) and the stress activated kinase (JNK/SAPK). C2 ceramide is a synthetic, membrane soluble analog of ceramide.

C[C@@H](O)[C@@H]1NC(=O)[C@H](CCCCN)NC(=O)[C@@H](Cc2c[nH]c3ccccc23)NC(=O)[C@H](Cc2ccccc2)NC(=O)[C@@H](NC(=O)[C@H](N)Cc2ccccc2)CSSC[C@@H](C(=O)N[C@H](CO)[C@@H](C)O)NC1=O [Octreotide, H-D-Phe-Cys-Phe-D-Trp-Lys-Thr-Cys-L-threoninol]
Cell cycle analysis G0/G1 (Human A549 cells [1]): 59.1 | Cell cycle analysis G2/M (Human A549 cells [1]): 9.2 | Cell cycle analysis S (Human A549 cells [1]): 31.8 | % inhibition of HBV replication in HEP G2 cells [2]: 13.4% | % inhibition of tube formation (HUVEC): 8% | % inhibition (MRSA): 0.0% | % of SAC/IL2 induced control [3]: 115.3% | % inhibition (Pseudomonas aeruginosa): 0.0% | % prevention of ceramide induced apoptosis (Human A549 cells [4]): 0.0%
